EP3502102A1, “STING INHIBITORS” (ECOLE POLYTECHNIQUE FEDERALE DE LAUSANNE (EPFL), priority 2017, dated 2019)

Experiments:
[1] = target: T1, RIG-I (Homo sapiens, UniProt O95786); experiment: IFN-beta luciferase reporter in HEK293T cells transfected with RIG-I (counter-screen); format: cell-based; conditions: 0.01-5µM
T1 construct: expressed in transfected cells; host or cells: HEK293T
T1 sequence (O95786 1-925): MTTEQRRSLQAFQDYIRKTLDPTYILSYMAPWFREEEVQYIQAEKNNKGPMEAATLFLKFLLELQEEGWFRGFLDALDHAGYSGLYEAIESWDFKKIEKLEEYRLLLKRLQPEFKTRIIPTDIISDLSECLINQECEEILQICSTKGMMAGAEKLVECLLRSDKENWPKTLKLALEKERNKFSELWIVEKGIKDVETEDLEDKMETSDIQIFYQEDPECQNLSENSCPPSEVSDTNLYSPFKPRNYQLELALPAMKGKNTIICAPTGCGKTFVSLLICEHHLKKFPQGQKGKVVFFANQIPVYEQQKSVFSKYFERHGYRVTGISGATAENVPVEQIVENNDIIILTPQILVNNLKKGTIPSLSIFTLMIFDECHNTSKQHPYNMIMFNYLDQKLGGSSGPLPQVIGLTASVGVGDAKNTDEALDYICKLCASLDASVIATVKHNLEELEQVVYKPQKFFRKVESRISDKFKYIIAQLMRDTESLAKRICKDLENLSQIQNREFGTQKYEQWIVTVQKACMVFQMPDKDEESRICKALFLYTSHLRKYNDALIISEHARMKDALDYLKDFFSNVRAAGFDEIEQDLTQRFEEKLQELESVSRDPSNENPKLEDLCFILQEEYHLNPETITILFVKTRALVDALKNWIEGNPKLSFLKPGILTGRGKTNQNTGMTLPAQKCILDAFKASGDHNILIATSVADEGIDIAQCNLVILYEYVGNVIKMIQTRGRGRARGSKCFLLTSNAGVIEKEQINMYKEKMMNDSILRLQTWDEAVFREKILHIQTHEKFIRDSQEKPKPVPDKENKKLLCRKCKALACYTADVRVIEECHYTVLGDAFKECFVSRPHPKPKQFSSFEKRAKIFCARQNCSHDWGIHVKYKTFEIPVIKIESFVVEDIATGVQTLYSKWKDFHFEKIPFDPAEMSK
Protocol: Reporter activity was measured 16 h after compound treatment. A nonlinear regression analysis was performed. […] Circles indicate substitutes compared to C-176. d, e, Chemical compounds from (c) were tested at 0.5 µM for inhibitory activity in HEK293T cells transfected with STING (e) or RIG-I (f) in conjunction with IFN-• luciferase reporter, respectively. b, e, f, Values of inhibitor-treated cells were normalized to DMSO-treated cells. […] Cytokine levels were normalized to DMSO-treated control cells. A nonlinear regression analysis was performed for cGAMP stimulation. b, c, BMDMs were pre-treated with C-178 (0.25 µM) and stimulated with cGAMP, cyclic di-GMP, CMA, 90mer dsDNA or LPS for 3 h. The induction of Ifnb1 mRNA levels was assessed by RT-qPCR. d, Heatmaps of RNA sequencing analysis of BMDMs treated with DMSO or CMA and with or without addition of C-178. […] Reporter activity was measured 16 h after transfection and values were normalized to DMSO-treated control cells. c, BMDMs were treated with C-178 (0.25 µM) for 1 h, washed or left untreated and after an additional hour stimulated with cGAMP. […] Flag-STING was immunoprecipitated from whole cell lysate and analysed by autoradiography. In parallel, cell lysates were analysed by immunoblotting for p-TBK1 and STING. d, HEK293T cells expressing STING were treated as indicated (C-178 (1 µM)) and stimulated with CMA for 1.5 h. […]

[2] = test system: Trex1 KO mice
[3] = Solubility (comparison); format: physicochemical
[4] = target: T2, STING (Mus musculus, UniProt Q3TBT3); experiment: CMA-induced serum cytokines in mice; format: in vivo, C57BL/6 mice; design: tissue Jackson Laboratories 000664; host or cells: whole animal, C57BL/6J mice; conditions: pre-treated 1 h or 4 h before i.p. CMA; serum 4 h later
T2 sequence (Q3TBT3 1-378): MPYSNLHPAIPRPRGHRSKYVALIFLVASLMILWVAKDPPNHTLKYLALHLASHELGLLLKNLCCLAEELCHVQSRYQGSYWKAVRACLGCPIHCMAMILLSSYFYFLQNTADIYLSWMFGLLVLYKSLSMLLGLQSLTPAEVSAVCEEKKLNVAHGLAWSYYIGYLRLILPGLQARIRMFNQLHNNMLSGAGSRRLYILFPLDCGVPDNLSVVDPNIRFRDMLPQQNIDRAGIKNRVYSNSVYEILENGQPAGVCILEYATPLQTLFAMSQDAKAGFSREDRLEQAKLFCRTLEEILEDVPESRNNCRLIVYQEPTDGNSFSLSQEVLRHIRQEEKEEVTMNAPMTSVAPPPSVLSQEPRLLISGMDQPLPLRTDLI

O=C(Nc1ccc(I)cc1)c1ccc([N+](=O)[O-])o1 [C-176, N-(4-iodophenyl)-5-nitro-2-furamide]
RIG-I-driven IFN induction [1]: neither RIG-I nor TBK1-driven IFN induction was affected | serum concentration of type I IFNs ([2]; TREX1 KO mice, compared to vehicle, 11 days): significant decrease | histological analysis of the heart ([2]; TREX1 KO mice, 11 days): decreased cellularity | overt toxicity (weight changes) ([2]; mouse, in vivo): no signs of overt toxicity | solubility relative to C-178 [3]: improved solubility | increase in serum concentration of IL-6 [4]: completely abrogated | increase in serum concentration of type I IFNs [4]: completely abrogated
